The compounds below were run against T1, recombinant human mGluR2 (Homo sapiens, UniProt Q14416) (assay: FLIPR Ca2+ mobilization assay, potentiation of glutamate response). Conditions: CHO dhfr- cells expressing human mGluR2 and Gα16; potentiation after EC20 glutamate (900 nM); read-out: Representative FLIPR EC50 Values: EC50.
T1 construct: expressed in transfected cells
T1 sequence (Q14416 19-872): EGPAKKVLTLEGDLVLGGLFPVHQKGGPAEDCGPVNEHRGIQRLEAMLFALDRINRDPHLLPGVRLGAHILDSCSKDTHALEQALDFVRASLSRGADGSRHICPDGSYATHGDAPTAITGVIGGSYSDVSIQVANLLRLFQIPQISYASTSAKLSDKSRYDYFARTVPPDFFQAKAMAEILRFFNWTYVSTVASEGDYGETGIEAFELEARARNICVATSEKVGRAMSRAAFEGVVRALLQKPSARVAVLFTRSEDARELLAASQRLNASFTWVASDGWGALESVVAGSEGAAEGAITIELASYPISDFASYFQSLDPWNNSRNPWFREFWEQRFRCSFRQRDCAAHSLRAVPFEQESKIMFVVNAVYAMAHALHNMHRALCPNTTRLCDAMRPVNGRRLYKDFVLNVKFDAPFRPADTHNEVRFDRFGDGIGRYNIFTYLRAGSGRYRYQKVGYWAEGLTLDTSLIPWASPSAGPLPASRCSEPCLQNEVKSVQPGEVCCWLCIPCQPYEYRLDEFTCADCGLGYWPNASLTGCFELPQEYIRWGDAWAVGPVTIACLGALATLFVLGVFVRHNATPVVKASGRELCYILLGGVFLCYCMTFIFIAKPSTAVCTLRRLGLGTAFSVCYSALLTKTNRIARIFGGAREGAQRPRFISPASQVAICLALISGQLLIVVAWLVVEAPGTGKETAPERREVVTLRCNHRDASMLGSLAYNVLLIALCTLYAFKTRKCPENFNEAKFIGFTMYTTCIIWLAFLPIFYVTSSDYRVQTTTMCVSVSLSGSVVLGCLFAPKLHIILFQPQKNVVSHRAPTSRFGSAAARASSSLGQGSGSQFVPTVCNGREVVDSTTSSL
Assay type: cell-based
Procedure: The compounds of the present invention may be tested in a fluorescence laser imaging plate reader (FLIPR) based assay. This assay is a common functional assay to monitor Ca^2+ mobilization in whole cells expressing recombinant receptor coupled with a promiscuous G-protein. CHO dhfr-cells stably expressing recombinant human mGluR2 and Gα16 loaded with Fluo-4 AM (Invitrogen, Carlsbad Calif.) are treated with dose responses of compounds and the Ca^2+ response is monitored on a FLIPR384 (Molecular Devices, Sunnydale Calif.) for agonist activity. The potentiation response is monitored after a subsequent addition of an EC20 concentration of glutamate (900 nM). The maximum calcium response at each concentration of compound for agonist or potentiation are plotted as dose responses and the curves are fitted with a four parameters logistic equation giving EC50 and Hill coefficient using the iterative non linear curve fitting software program.
With `CCCCCCC1(CC)Cn2c(nc3ccccc32)O1` (centres unmarked) [Example 4-3] the EC50 was 2290 nM. `CC(C)(C)OC(=O)N1CCCC(C2Cn3c(nc4ccccc43)O2)C1` (centres unmarked) [Example 3-7, tert-butyl 3-(2,3-dihydro[1,3]oxazolo[3,2-a]benzimidazole-2-yl)piperidine-1-carboxylate] gave an EC50 of 378 nM. With `c1ccc2c(c1)nc1n2CC(CC2CCCCC2)O1` (centres unmarked) [Example 3-5, 2-(cyclohexylmethyl)-2,3-dihydro[1,3]oxazolo[3,2-a]benzimidazole] the EC50 was 2140 nM. With `CCCCCC[C@@H]1Cn2c(nc3cc(C#N)ccc32)O1` [Example 1-19, (2R)-2-hexyl-2,3-dihydro[1,3]oxazolo[3,2-a]benzimidazole-7-carbonitrile] the EC50 was 11 nM. Work on “(R)-2-(6-fluorohexyl)-2,3-dihydrobenzo oxazolo[3,2-a]imidazole-7-carbonitrile [Example 1-31]” yielded an EC50 of 68 nM. In the case of `COCCCCC1Cn2c(nc3ccccc32)O1` (centres unmarked) [Example 1-21, 2-(4-methoxybutyl)-2,3-dihydrobenzo[d]oxazolo[3,2-a]imidazole], the EC50 is reported as 3120 nM. With `CCCCCCC1(C)Cn2c(nc3ccccc32)O1` (centres unmarked) [Example 4-2, 2-hexyl-2-methyl-2,3-dihydro[1,3]oxazolo[3,2-a]benzimidazole] the EC50 was 622 nM. For `CCCCCC[C@@H]1Cn2c(nc3ccccc32)O1` [Example 1-5, (2R)-2-hexyl-2,3-dihydro[1,3]oxazolo[3,2-a]benzimidazole], the EC50 was 21 nM.
